IC50 data for one compound are collected here from ChEMBL document CHEMBL1129245, “N-heteroaryl-2-phenyl-3-(benzyloxy)piperidines: a novel class of potent orally active human NK1 antagonists” (J Med Chem, 1996).

The target in the assay is Substance-P receptor (Homo sapiens, UniProt P25103). The assay is described as follows: Displacement of [125 I]-Tyr8 SP from the cloned human Tachykinin receptor 1 expressed in CHO cells. Format: cell-based.

Molecules are shown by their SMILES.

Sequence of Substance-P receptor (P25103 whole entry): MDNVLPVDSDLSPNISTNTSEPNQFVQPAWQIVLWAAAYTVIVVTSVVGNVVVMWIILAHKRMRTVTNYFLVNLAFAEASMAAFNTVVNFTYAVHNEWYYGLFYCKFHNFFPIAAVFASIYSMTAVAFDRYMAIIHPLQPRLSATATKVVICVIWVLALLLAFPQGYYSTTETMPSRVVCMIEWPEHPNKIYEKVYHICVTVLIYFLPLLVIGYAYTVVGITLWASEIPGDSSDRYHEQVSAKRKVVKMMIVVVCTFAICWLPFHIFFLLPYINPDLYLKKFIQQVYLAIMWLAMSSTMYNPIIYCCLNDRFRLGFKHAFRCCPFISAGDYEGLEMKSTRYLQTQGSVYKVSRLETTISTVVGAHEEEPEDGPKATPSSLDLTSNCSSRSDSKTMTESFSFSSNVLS

What is called IC50 is the concentration needed to halve the response being measured. Read a high IC50 as weaker potency. On to `FC(F)(F)c1cc(CO[C@H]2CCCN(Cc3nnn[nH]3)[C@H]2c2ccccc2)cc(C(F)(F)F)c1`, for which the IC50 turned out to be 0.043 µM.
